Measurements from US20080219936A1, “Skin depigmenting compositions comprising adapalene, at least one depigmenting agent and at least one anti-inflammatory agent” (GALDERMA RESEARCH AND DEVELOPMENT, priority 2005, published 2008).

Experiments:
[1] = tested on: tail of a mouse; assay: Inhibition of the induction of pigmentation by UV-B radiation in irradiated and treated mice; type: in vivo; conditions: lower dose (0.01%)
Description: Retinoic acid (tretinoin) is known to itself have a skin depigmenting activity (Guevara I. A. and Pandya A. G., Int. J. Dermatol., 40, 210-215 (2001)). […] Tretinoin is therefore a depigmenting agent in and of itself.

[2] = tested on: natural pigmentation of the tail of an SKH:HR2 mouse; assay: Depigmenting activity on natural pigmentation, tail of non-irradiated SKH:HR2 mouse, 8 weeks; type: in vivo; conditions: topical in acetone 5 days a week for 8 weeks, 3% hydroquinone, 0.1% adapalene, alone or in combination
Description: The evaluation of the depigmenting and/or anti-pigmenting activity of 3% hydroquinone and of 0.1% adapalene, alone or in combination for 8 weeks, is carried out on the tail of an SKH:HR2 mouse irradiated with ultraviolet B radiation, or not irradiated.
The treatment is carried out 5 days a week for 8 weeks. 20 μl of test product diluted in acetone are applied to the tail with a gap from applications: the hydroquinone is applied in the morning and the adapalene 4 h later.
−1: slight depigmentation
−2: moderate depigmentation
−3: marked depigmentation
−4: complete depigmentation

[3] = tested on: UV-induced pigmentation of the tail of an SKH:HR2 mouse; conditions: UV-B 90 mJ/cm^2 3 times a week; topical in acetone 5 days a week for 8 weeks; 3% hydroquinone, 0.1% adapalene
Description: The tail of the SKH:HR2 mouse is naturally pigmented and this pigmentation increases under the effect of repeated UV-B irradiation. The depigmenting activity is measured on the natural pigmentation after application of the test product to the tail of non-irradiated animals. The anti-pigmenting activity is measured by the inhibition of the induction of the UV-induced pigmentation: the test product is applied to the tail of UV-B-irradiated animals.
The treatment is carried out 5 days a week for 8 weeks. […] On the days of irradiation, the treatment is applied after irradiation.
The animals are irradiated 3 times a week for 8 weeks (Monday, Wednesday, Friday) at the dose of 90 mJ/cm^2 of UV-B.
The pigmentation is evaluated once a week before irradiation, by means of a score on a scale of 0 to 4. The scores are divided as follows: Depigmentation scale: scores −1 to −4.
Pigmentation scale: scores 1 to 4

Compound | inhibition of the induction of pigmentation by UV-B radiation [1] | depigmenting activity (natural pigmentation score) [2] | depigmenting activity (natural pigmentation score) ([2]; listed as Adapalene) | anti-pigmenting activity (inhibition of pigmentation induced by UV-B irradiation) [3]
CC1=C(/C=C/C(C)=C/C=C/C(C)=C/C(=O)O)C(C)(C)CCC1 [tretinoin, Retinoic acid] | no effect |  |  | 
COc1ccc(-c2ccc3cc(C(=O)O)ccc3c2)cc1C12CC3CC(CC(C3)C1)C2 [adapalene, 6-[3-(1-adamantyl)-4-methoxyphenyl]-2-naphthanoic acid] |  | no depigmenting activity | does not modify the natural pigmentation | 
Oc1ccc(O)cc1 [hydroquinone] |  | induces a depigmentation |  | shows an anti-pigmenting effect at the 6th and at the 7th week (D50), which becomes less marked at the end of the study
